Laboratory results published in patent US11377416B2, “Crystalline forms of hydroxynorketamine” (SMALL PHARMA LTD, priority 2017, dated 2022).

Legend:
[1] = TG/DTA thermal analysis of crystal forms; assay type: physicochemical; conditions: heated 10° C./min from 20° C. to 300° C. under nitrogen
Description: Approximately 5 mg of material was weighed into an open aluminium pan and loaded into a simultaneous thermogravimetric/differential thermal analyser (TG/DTA) and held at room temperature. The sample was then heated at a rate of 10° C./min from 20° C. to 300° C. during which time the change in sample weight was recorded along with any differential thermal events (DTA). Nitrogen was used as the purge gas, at a flow rate of 300 cm^3/min.

[2] = comparison value for known crystal forms, conditions not given; cited from earlier work
[3] = pKa analysis, potentiometric (pH-metric) titration; assay type: physicochemical; conditions: pH-metric triple titration, methanol-water co-solvent, pH 2.0-12.0, Yasuda-Shedlovsky extrapolation
Description: The sample pKa was determined using the potentiometric (pH-metric) technique following attempts to determine pKa via UV spectroscopic techniques.
UV-metric: The sample was initially titrated in a fast-UV triple titration between pH 2.0-12.0 at concentrations of 31-19 μM, under aqueous conditions. No evidence of any sample ionisation within the investigated pH range was inferred from the spectroscopic data obtained, meaning that any ionisable groups were remote from chromophores. Therefore, the sample was analysed using the pH-metric method.
pH-metric: The sample was subsequently titrated using the potentiometric technique to determine the non-UV active pKas. A triple titration was carried out under methanol-water co-solvent conditions from pH 2.0-12.0 at concentrations of 0.9-0.6 mM (the methanol mixing ratio varied from 53.0 to 33.3% w/w). No precipitation of the sample from solution was observed so the pKa was determined from the potentiometric data collected, by Yasuda-Shedlovsky extrapolation of the individual results obtained. pKa of 2R,6R-hydroxynorketamine was calculated as 6.51+/−0.02.

Row | SMILES | temperature above which the material degrades (TG/DTA) [1] | other results
1 | NC1(c2ccccc2Cl)CCCC(O)C1=O.O=C(O)CC(O)(CC(=O)O)C(=O)O (stereo not drawn) [2R,6R-Hydroxynorketamine Citrate] | above 157 °C | 
2 | NC1(c2ccccc2Cl)CCCC(O)C1=O.O=C(O)C=CC(=O)O.O=C(O)C=CC(=O)O (stereo not drawn) [2R,6R-Hydroxynorketamine Difumarate, 2R,6R-hydroxynorketamine difumarate] | above 159 °C | 
3 | NC1(c2ccccc2Cl)CCCC(O)C1=O.O=C(O)CC(O)C(=O)O [2R,6R-Hydroxynorketamine L-Malate, 2R,6R-hydroxynorketamine L-malate] | above 150 °C | 
4 | N[C@@]1(c2ccccc2Cl)CCC[C@@H](O)C1=O.O=C(O)C(O)C(O)C(=O)O [2R,6R-Hydroxynorketamine L-Tartrate, 2R,6R-hydroxynorketamine L-tartrate] | above 157 °C | 
5 | N[C@@]1(c2ccccc2Cl)CCC[C@@H](O)C1=O.O=C1CC[C@@H](C(=O)O)N1 [2R,6R-hydroxynorketamine L-pyroglutamate] | above 159 °C | 
6 | Cl.N[C@@]1(c2ccccc2Cl)CCC[C@@H](O)C1=O [2R,6R-hydroxynorketamine hydrochloride] |  | aqueous solubility of known crystal forms [2]: 25 mg/mL
7 | N[C@@]1(c2ccccc2Cl)CCC[C@@H](O)C1=O [2R,6R-hydroxynorketamine, 2R,6R-2-(2-Chlorophenyl)-2-(amino)-6-hydroxycyclohexanone] |  | pKa [3]: 6.51+/−0.02
